The values below come from patent US20240209028A1, “CNP COMPOUNDS” (priority 2022, published 2024).

Like-named read-outs stand apart in the source and are kept apart here. Starred links: 1 amine or outer side, 2 acyl side, 3 side chain; linkers in the order of their positions; H or OH if unused. Positions of bridges follow the written chain, without caps; N, C: chain ends. Residues, ends and D or L forms follow the SMILES beside them. *: point of attachment. C18 diacid = O=C(O)CCCCCCCCCCCCCCCCC(=O)*; γGlu = O=C(O)[C@H](CCC(=O)[*:2])N[*:1]; AEEA = NCCOCCOCC(=O)O

Data set [1] is described as follows: CNP local tolerance study in LYD pigs (s.c. injection, histopathology). Type of data set: in vivo, domestic LYD pig. The source says:
The purpose of this study was to evaluate the local tissue reaction response to subcutaneous injection of CNP compounds in pigs.
Procedure: In domestic pigs, the injection site was subjected to histopathologic examination after subcutaneous dosing. Injections were placed mid-back between the shoulder and hip on both sides of the dorsal midline, and one or two days before injection sites of 2×2 cm were shaved and marked by permanent ink under light anaesthesia. Each injection consisted of 100 or 200 μl formulation with a concentration of approx. 4400 μM. CNP compound formulations were prepared according to the principles in General Methods of Preparation—Method G, and were either A) 8 mM sodium phosphate, 250 mM glycerol, pH 6.5, B) 5 mM sodium acetate, 250 mM glycerol, pH 4.0 or C) 5 mM sodium acetate, 240 mM propylene glycol, pH 4.0 and physiological saline was included as negative control.
On Day 1 the pigs were lightly anaesthetised. An insulin pen (NovoPen 4) and insulin needle (NovoTwist 32G/5 mm) were used for accurate deposition of the CNP formulations in the subcutaneous fat tissue with the needle perpendicular to the skin. On Day 5 (4 days post injection) or 6 (5 days post injection), the pigs were euthanised, and the injection sites were removed and fixed in 4% phosphate buffered neutral formaldehyde in sealed plastic containers. The tissue blocks were prefixed for 2-4 hours in 10% buffered formalin, cut into 2 mm thick slabs with a multi knife, examined for macroscopic changes and finally fixed overnight in cassettes. Two slabs of tissue were selected for light microscopic evaluation where the tissue reaction was maximal or alternatively in the central part of the injection site. Three to four 2-4 μm sections were cut from three levels at 100 μm distance, stained with haematoxylin and eosin (H&E) and evaluated in a light microscope. Histopathological changes were graded on a 5-level scale ((Minimal (Min), Mild (Mil), Moderate (Mod), Marked (Mar) and Severe (Sev)). The studies are summarised in Table 18.
Results: The results are summarised in Table 19. * Necrosis was used as a marker for local subcutaneous reactions; **NAD: No Abnormalities Detected

Data set [2] in a line: PK after i.v. and s.c. administration to domestic LYD pig. The following applies: female, in vivo, Domestic LYD pig; for clearance: read-out: CL (ml/hr/kg), Intravenous PK (converted). The protocol:
The purpose of this study was to investigate pharmacokinetic and pharmacodynamic properties after intravenous (i.v.) and subcutaneous (s.c.) administration to Gottingen Minipig and domestic LYD pig, and to estimate bioavailability after s.c. dosing. Quantitative plasma analysis of CNP and cGMP levels were performed as described in
Animals and dosing: The pharmacokinetic and pharmacodynamic studies in Gottingen Minipig or domestic LYD pig were conducted at CRO Minerva Imaging or Novo Nordisk A/S, respectively. CNP compounds were dosed to normal female 1) Gottingen minipigs 6-12 months of age with an average weight of 22 kg or 2) domestic LYD pigs 4-5 months of age with and average weight of 80 kg. At least one week prior to dosing, permanent central venous catheters were implanted for blood sampling and intravenous (i.v.) dosing. For subcutaneous (s.c.) dosing, the pigs were ultrasound scanned and the optimal injection area laterally on the neck marked by a permanent tattoo. An insulin pen (NovoPen Echo or NovoPen 4) and insulin needle (NovoFine 32G/4 mm or NovoTwist 32G/5 mm) were used for accurate deposition of the CNP formulations in the subcutaneous fat tissue with the needle perpendicular to the skin.
CNP compounds were formulated according to the principles in General Methods of Preparation—Method G and were either A) 8 mM sodium phosphate, 250 mM glycerol, pH 6.5, B) 5 mM sodium acetate, 250 mM glycerol, pH 4.0, C) 5 mM sodium acetate, 240 mM propylene glycol, pH=4.0, D) 8 mM sodium phosphate, 250 mM glycerol, pH 7.5 or E) 20 mM sodium phosphate, 223 mM propylene glycol, pH 6.0.
Intravenously, the CNP compounds were dosed at 30-60 nmol/kg to Minipig and 15-43 nmol/kg to domestic pig using formulations A-E. Subcutaneously, the CNP compounds were dosed at 55-62 nmol/kg to Minipig and 20-30 nmol/kg to domestic pig using formulations A-D.
Sampling: Blood samples of approximately 1 mL were collected pre dose and up to 14 days post dose into EDTA-coated tubes (8 mM) for cGMP and CNP compound analysis by LC-MS. In few instances, cGMP was only analysed up to 48 hours post dose after intravenous dosing in domestic LYD pig. The blood samples were kept on wet ice for maximum 30 minutes until centrifugation for 10 minutes at 4° C. and minimum 1500G, and the plasma samples were stored at −20° C. until analysis.
Plasma concentration-time profiles were analyzed by non-compartmental PK analysis using Phoenix WinNonlin 8.1, Pharsight Inc., Mountain View, CA, USA. Calculation of the area under the plasma concentration-time curve (AUC) was based on the “linear up log down” method, and uniform weighting was used for estimation of the terminal rate constant (λz). S.c. bioavailability (F) was calculated as the dose-normalized AUC (AUC/dose) after s.c. administration divided by the AUC/dose after i.v. administration. […]

For data set [3], the target named is T1, human natriuretic peptide receptor 2 (hNPR2) (Homo sapiens, UniProt P20594).
T1 construct: expressed in transfected cells; host or cells: HEK293 (ATCC CRL-1573), clone 35, co-transfected with pGloSensor-42F
T1 sequence (P20594 23-1047): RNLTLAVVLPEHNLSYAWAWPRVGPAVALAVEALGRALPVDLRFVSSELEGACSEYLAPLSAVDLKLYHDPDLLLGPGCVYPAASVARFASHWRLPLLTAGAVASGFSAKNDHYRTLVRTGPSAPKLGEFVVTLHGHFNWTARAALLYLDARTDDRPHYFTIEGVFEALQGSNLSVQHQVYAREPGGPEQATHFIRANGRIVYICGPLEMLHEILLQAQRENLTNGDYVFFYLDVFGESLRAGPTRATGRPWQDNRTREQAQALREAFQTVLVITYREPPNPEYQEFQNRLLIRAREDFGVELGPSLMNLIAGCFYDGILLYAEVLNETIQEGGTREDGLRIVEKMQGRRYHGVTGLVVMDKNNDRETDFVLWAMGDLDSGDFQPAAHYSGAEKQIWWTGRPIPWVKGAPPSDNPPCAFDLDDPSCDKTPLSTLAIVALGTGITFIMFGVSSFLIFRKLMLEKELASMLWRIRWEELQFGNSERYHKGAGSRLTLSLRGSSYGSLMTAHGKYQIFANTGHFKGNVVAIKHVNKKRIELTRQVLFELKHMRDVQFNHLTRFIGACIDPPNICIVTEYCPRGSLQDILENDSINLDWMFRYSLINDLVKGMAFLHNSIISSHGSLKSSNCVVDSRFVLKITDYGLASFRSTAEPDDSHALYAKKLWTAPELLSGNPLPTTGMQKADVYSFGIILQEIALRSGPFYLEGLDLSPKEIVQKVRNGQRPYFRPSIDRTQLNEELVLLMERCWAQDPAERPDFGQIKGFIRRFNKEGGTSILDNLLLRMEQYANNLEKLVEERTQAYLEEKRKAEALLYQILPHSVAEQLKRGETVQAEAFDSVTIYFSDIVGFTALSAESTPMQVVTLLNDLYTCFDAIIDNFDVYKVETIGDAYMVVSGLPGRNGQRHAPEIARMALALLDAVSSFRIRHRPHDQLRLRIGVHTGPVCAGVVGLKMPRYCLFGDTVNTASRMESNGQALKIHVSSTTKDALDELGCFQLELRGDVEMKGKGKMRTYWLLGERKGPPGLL
Description: In vitro hNPR2 activity assay (cGMP GloSensor reporter, HEK293). Type of data set: cell-based. The method in brief:
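Potency is the EC50 from a four-parameter logistic fit, also expressed relative to the in-plate CNP22 control (×100), with at least two replicates. Compounds (ten concentrations, […], HSA-free diluent with 1% OVA, 0.01% Tween20) were incubated 30 min at 37 °C on HEK293 cells co-expressing hNPR2 and a GloSensor cGMP luciferase. Luminescence detected with Bright-Glo.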

The mark [4] stands for this setting: iv, i.v., read-out: T½, iv (converted).

Usually EC50 stands for the concentration at which the effect is half-maximal.

Consider `CC[C@H](C)[C@@H]1NC(=O)[C@H](CCCNC(=N)N)NC(=O)[C@H](CC(=O)O)NC(=O)[C@H](CC(C)C)NC(=O)[C@H](CCCCN)NC(=O)[C@H](CC(C)C)NC(=O)CNC(=O)[C@H](Cc2ccccc2)NC(=O)[C@@H](NC(=O)CNC(=O)[C@H](CCCCN)NC(=O)[C@H](CO)NC(=O)[C@H](CC(C)C)NC(=O)CNC(=O)[C@H](CCCCN)NC(=O)[C@H](CCCCN)NC(=O)[C@H](CC(N)=O)NC(=O)[C@H](C)NC(=O)CNC(=O)[C@H](CCCCN)NC(=O)[C@H](Cc2ccc(O)cc2)NC(=O)[C@H](CCCCN)NC(=O)[C@H](CCCNC(=N)N)NC(=O)[C@H](C)NC(=O)[C@H](CC(N)=O)NC(=O)[C@@H]2CCCN2C(=O)[C@H](Cc2c[nH]cn2)NC(=O)[C@H](CCC(=O)O)NC(=O)[C@H](CCC(N)=O)NC(=O)CNC(=O)[C@@H]2CCCN2)CSSC[C@@H](C(=O)O)NC(=O)CNC(=O)[C@H](CC(C)C)NC(=O)CNC(=O)[C@H](CO)NC(=O)[C@H](CCSC)NC(=O)[C@H](CO)NC(=O)CNC1=O` [Compound 0106], for which, in data set [1] (LYD pig, s.c., approx. 4400 μM, 4 or 5 days after injection), the “Number of injections by severity of necrosis: NAD” value is reported as 4.

As to `CC[C@H](C)[C@@H]1NC(=O)[C@H](CCCNC(=N)N)NC(=O)[C@H](CC(=O)O)NC(=O)[C@H](CC(C)C)NC(=O)[C@@H]2CCCN2C(=O)[C@H](CC(C)C)NC(=O)CNC(=O)[C@H](Cc2ccccc2)NC(=O)[C@@H](NC(=O)CNC(=O)[C@H](CCCCN)NC(=O)[C@H](CO)NC(=O)[C@H](CC(C)C)NC(=O)CNC(=O)[C@H](CCCCN)NC(=O)[C@H](CCCCN)NC(=O)[C@H](CCC(N)=O)NC(=O)[C@H](C)NC(=O)CNC(=O)[C@H](CCC(=O)O)NC(=O)[C@H](Cc2ccc(O)cc2)NC(=O)COCCOCCNC(=O)COCCOCCNC(=O)CC[C@H](NC(=O)CCCCCCCCCCCCCCCCC(=O)O)C(=O)O)CSSC[C@@H](C(=O)O)NC(=O)CNC(=O)[C@H](CC(C)C)NC(=O)CNC(=O)[C@H](CO)NC(=O)[C@H](CC(C)C)NC(=O)[C@H](CO)NC(=O)CNC1=O` [Compound 1225] ({C18 diacid-γGlu-AEEA-AEEA}-YEGAQKKGLSKGCFGLPLDRIGSLSGLGC-OH; disulfide 13-29), the clearance in data set [2] (iv, i.v.) was 3.23 mL/h/kg. Further, in data set [2] (setting [4]), the half-life is 15 h.

Take `CC[C@H](C)[C@@H]1NC(=O)[C@H](CCCNC(=N)N)NC(=O)[C@H](CC(=O)O)NC(=O)[C@H](CC(C)C)NC(=O)[C@@H]2CCCN2C(=O)[C@H](CC(C)C)NC(=O)CNC(=O)[C@H](Cc2ccccc2)NC(=O)[C@@H](NC(=O)CNC(=O)[C@H](CO)NC(=O)[C@H](CO)NC(=O)[C@H](CC(C)C)NC(=O)CNC(=O)[C@H](CCCCN)NC(=O)[C@H](CCCCN)NC(=O)[C@H](CCC(N)=O)NC(=O)[C@H](C)NC(=O)CNC(=O)[C@H](CCC(=O)O)NC(=O)[C@H](Cc2ccc(O)cc2)NC(=O)COCCOCCNC(=O)COCCOCCNC(=O)CC[C@H](NC(=O)CCCCCCCCCCCCCCCCC(=O)O)C(=O)O)CSSC[C@@H](C(=O)O)NC(=O)CNC(=O)[C@H](CC(C)C)NC(=O)CNC(=O)[C@H](CO)NC(=O)[C@H](CC(C)C)NC(=O)[C@H](CO)NC(=O)CNC1=O` [Compound 1227] ({C18 diacid-γGlu-AEEA-AEEA}-YEGAQKKGLSSGCFGLPLDRIGSLSGLGC-OH; disulfide 13-29): the clearance in data set [2] (iv, i.v.) is 5.54 mL/h/kg. Besides, the half-life was 11 h in data set [2] (setting [4]) and 9 h in data set [2] (sc, s.c., read-out: T½, sc (converted)). For the same compound, in data set [2] (sc, s.c. bioavailability, read-out: F (%), Subcutaneous PK), the bioavailability turned out to be 55%.

`CC[C@H](C)[C@@H]1NC(=O)[C@H](CCCNC(=N)N)NC(=O)[C@H](CC(=O)O)NC(=O)[C@H](CC(C)C)NC(=O)[C@H](CCCCN)NC(=O)[C@H](CC(C)C)NC(=O)CNC(=O)[C@H](Cc2ccccc2)NC(=O)[C@@H](NC(=O)CNC(=O)[C@H](CCCCN)NC(=O)[C@H](CO)NC(=O)[C@H](CC(C)C)NC(=O)CNC(=O)[C@H](CCCCN)NC(=O)[C@H](CCCCN)NC(=O)[C@H](CC(N)=O)NC(=O)[C@H](C)NC(=O)CNC(=O)[C@H](CCCCN)NC(=O)[C@H](Cc2ccc(O)cc2)NC(=O)[C@H](CCCCN)NC(=O)[C@H](CCCNC(=N)N)NC(=O)[C@H](C)NC(=O)[C@H](CC(N)=O)NC(=O)[C@@H]2CCCN2C(=O)[C@H](Cc2c[nH]cn2)NC(=O)[C@H](CCC(=O)O)NC(=O)[C@H](CCC(N)=O)NC(=O)CNC(=O)[C@@H]2CCCN2)CSSC[C@@H](C(=O)O)NC(=O)CNC(=O)[C@H](CC(C)C)NC(=O)CNC(=O)[C@H](CO)NC(=O)[C@H](CCSC)NC(=O)[C@H](CO)NC(=O)CNC1=O` [compound 0106]: the EC50 in data set [3] (0% HSA, HEK293-hNPR2/GloSensor cells) was found to be 0.18 nM. In addition, in data set [3] (potency relative to CNP22 (0065)), the “hNPR2 0% HSA. [EC50% rel CNP]” value was 201.1%. Besides, the injection site reactions entry in data set [1] (subcutaneous injections in the pig) was “no observable injection site reactions”.
